The target in one test is T1, Testosterone receptor (Homo sapiens, UniProt P10275).
T1 sequence (P10275 1-920): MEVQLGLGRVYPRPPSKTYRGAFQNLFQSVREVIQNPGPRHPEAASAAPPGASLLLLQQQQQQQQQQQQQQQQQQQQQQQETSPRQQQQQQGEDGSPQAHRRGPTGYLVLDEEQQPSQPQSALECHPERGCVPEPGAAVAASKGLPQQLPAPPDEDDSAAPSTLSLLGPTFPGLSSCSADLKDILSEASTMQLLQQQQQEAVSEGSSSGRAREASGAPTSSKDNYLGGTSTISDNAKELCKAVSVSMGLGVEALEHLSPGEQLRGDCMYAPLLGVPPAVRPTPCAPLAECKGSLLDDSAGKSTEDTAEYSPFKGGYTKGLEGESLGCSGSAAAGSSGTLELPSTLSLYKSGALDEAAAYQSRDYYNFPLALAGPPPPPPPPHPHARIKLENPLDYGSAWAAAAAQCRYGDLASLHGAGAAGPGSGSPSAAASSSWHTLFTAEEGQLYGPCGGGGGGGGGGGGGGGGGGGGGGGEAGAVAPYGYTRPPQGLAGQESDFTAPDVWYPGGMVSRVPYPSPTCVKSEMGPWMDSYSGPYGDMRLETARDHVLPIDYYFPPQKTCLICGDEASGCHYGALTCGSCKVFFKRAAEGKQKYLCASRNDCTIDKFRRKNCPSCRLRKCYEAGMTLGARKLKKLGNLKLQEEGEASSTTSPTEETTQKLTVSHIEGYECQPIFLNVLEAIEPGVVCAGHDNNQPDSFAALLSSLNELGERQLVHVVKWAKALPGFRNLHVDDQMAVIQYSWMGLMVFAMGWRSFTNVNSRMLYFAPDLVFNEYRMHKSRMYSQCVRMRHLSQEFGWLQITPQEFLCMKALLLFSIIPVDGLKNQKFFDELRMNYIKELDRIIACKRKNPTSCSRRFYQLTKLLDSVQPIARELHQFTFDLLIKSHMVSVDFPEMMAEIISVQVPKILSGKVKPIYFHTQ
The experiment in a line: Activity at testosterone receptor. The source says:
(§1) In identifying compounds that would have use in the treatment of SDAT and other diseases characterised by reductions in receptor numbers or synaptic transmission, the inventors have given consideration to the need to identify compounds that would have the desired effect but would be devoid of any estrogenic effects, as these would be unacceptable, particularly in male patients. A number of the compounds claimed to have activity in patent application DE 4303214A1 have marked estrogenic activity and are therefore unacceptable.

In the next test the target is T2, Glucocorticoid receptor (Homo sapiens, UniProt P04150).
T2 sequence (P04150 1-777): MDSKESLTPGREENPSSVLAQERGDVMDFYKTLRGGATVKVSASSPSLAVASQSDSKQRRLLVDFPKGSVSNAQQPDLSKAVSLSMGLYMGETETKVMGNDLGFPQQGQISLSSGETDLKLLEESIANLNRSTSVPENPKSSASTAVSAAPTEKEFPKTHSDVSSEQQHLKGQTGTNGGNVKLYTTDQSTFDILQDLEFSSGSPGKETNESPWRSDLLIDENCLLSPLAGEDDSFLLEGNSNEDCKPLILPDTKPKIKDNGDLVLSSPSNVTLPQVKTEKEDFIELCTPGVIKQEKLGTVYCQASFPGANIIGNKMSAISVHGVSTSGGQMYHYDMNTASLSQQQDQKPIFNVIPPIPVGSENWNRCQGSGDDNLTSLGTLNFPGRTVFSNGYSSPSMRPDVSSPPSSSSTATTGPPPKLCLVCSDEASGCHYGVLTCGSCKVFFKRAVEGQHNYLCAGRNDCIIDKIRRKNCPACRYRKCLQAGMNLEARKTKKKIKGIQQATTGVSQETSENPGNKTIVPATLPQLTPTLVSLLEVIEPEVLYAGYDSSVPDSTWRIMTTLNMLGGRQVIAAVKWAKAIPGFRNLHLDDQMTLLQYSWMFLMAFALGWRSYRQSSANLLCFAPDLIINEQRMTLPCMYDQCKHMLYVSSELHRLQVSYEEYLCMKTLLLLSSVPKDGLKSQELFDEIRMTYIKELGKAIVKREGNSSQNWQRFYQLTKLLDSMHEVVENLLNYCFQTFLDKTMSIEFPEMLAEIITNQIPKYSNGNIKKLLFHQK
The experiment in a line: Activity at glucocorticoid receptor.
Description: as §1

In the next test the target is T3, Progesterone receptor (Homo sapiens, UniProt P06401).
T3 sequence (P06401 1-933): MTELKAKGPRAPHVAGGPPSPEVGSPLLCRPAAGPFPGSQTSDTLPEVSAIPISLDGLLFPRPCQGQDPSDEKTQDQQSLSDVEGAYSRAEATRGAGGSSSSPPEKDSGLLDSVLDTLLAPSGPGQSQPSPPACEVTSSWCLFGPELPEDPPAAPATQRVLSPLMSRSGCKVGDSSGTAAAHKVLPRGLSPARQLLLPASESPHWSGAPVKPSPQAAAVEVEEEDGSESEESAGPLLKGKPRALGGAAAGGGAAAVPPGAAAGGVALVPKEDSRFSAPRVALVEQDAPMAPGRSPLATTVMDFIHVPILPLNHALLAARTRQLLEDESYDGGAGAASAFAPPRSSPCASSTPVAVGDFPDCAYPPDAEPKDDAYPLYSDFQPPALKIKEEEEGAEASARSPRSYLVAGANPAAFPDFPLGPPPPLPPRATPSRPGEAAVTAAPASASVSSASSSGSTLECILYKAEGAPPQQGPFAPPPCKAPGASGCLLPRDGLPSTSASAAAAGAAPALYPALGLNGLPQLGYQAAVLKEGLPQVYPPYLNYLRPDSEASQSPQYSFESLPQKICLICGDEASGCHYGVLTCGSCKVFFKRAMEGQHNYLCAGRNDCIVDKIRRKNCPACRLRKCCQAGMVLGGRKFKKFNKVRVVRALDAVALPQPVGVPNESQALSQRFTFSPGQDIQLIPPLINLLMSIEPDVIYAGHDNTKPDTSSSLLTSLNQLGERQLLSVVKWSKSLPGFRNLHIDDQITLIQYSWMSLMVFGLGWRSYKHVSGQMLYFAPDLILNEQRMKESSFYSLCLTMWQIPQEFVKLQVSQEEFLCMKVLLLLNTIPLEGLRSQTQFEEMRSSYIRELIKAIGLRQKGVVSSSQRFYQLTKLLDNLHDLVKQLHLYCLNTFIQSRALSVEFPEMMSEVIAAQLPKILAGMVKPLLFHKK
As to the kind of experiment: Activity at progesterone receptor.
Description: as §1

A further test deals with estrogen receptor. As to the kind of experiment: Estrogenic activity.
Description: as §1

In test [1] the test system is muscarinic receptors on cardiac muscle cells. The experiment in a line: Muscarinic receptor expression on cultured neonatal cardiac muscle cells (tritiated QNB binding). In kind it is cell-based, Sprague Dawley rats. The source says: 3. Cultured cardiac muscle cells obtained from neonatal Sprague Dawley rats. The cardiac muscle cells express muscarinic receptors, typically m2. The level of these receptors falls on prolonged culture and the effects of compounds of interest in preventing the fall in receptor numbers was investigated.
3 Effects of compounds on cultured cardiac muscle cells. Cardiac muscle cells were isolated from the ventricular muscle of neonatal Sprague Dawley rats using standard techniques. Cells were cultured in vitro and muscarinic receptor numbers expressed on cell surfaces membrane fragments after homogenization of cells harvested at various time points were estimated using specific binding of tritiated QNB. […] The experiments were therefore designed to investigate the effects of the various compounds in inhibiting this decline in receptor numbers.

Test [2] has as its system m2 receptors on CHO cells. The experiment in a line: Expression of m2 receptors on transfected CHO cells (tritiated QNB binding). The following applies: for Antagonism by tamoxifen of the increase in muscarinic receptor number: in the presence of tamoxifen; for Effect on receptor expression, given as % increase compared to control (negative values in brackets): DMSO control. In kind it is cell-based, Chinese hamster. Here is the method:
1. Chinese hamster ovary (CHO) cells transfected with the a DNA fragment coding for a muscarinic receptor. The cell line used for the majority of the experiments was a cell line expressing the m2 receptor.
1 CHO cell line experiments The effects of various compounds on the expression of m2 receptors on CHO cells transfected with DNA for the m2 receptor were investigated. Receptor. numbers were assayed using tritiated QNB binding and subtracting non-specific binding. Compounds were dissolved in DMSO and DMSO was used as a control. Compounds were tested at a range of final concentrations. Compounds were also tested in the presence and absence of tamoxifen to try to distinguish an estrogen receptor mediated mechanism. The results are summarized in the Table 2 below, where the compounds used in the invention appear in bold, and data on other sapogenins is given for comparative purposes: […]

[3] abbreviates: molar concentration of compound 10^−5.

Chain of m2 receptors on CHO cells (P08172 whole entry, the tested form may be a part): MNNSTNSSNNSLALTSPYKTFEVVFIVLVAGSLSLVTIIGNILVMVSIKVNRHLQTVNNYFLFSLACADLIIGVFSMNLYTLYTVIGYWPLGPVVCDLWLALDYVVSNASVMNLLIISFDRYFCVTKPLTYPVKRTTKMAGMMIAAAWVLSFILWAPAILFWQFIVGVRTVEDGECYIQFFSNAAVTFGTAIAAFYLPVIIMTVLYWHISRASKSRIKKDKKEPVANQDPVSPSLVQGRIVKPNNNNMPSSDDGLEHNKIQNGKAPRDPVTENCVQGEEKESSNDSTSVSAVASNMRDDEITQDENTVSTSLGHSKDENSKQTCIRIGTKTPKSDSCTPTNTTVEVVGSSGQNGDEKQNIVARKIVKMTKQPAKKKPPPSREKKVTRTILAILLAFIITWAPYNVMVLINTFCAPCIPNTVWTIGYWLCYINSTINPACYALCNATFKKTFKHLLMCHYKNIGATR

On to `C[C@@H]1CC[C@@]2(OC1)O[C@H]1C[C@H]3[C@@H]4C[C@@H](O)[C@@]5(O)C[C@@H](O)CC[C@]5(C)[C@H]4CC[C@]3(C)[C@H]1[C@@H]2C` [Anzurogenin D, Anzurogenin-D], for which the “Activity at testosterone receptor” value on Testosterone receptor is on record as “neither compound was found to have any activity”. Besides, the “Activity at glucocorticoid receptor” value on Glucocorticoid receptor is listed as “neither compound was found to have any activity”. The “Activity at progesterone receptor” value at Progesterone receptor is given as “neither compound was found to have any activity”. Also, the Estrogenic activity result in the test with estrogen receptor was “do not display estrogenic activity”. For the same molecule, the “Concentration of compound causing a significant increase in number of receptors expressed on neonatal cardiac muscle after 10 days in vitro culture” value in test [1] was 10^−6 M. For the same molecule, in test [2], the “Antagonism by tamoxifen of the increase in muscarinic receptor number” value is reported as “not antagonized by tamoxifen”. In test [2] (setting [3]), the “Effect on receptor expression, given as % increase compared to control (negative values in brackets)” value is given as 22%.
Take `C[C@H]1CC[C@@]2(OC1)O[C@H]1C[C@H]3[C@@H]4CC[C@@H]5C[C@@H](O)CC[C@]5(C)[C@H]4CC[C@]3(C)[C@H]1[C@@H]2C` [Sarsasapogenin, reference compound]: in test [1], the “Concentration of compound causing a significant increase in number of receptors expressed on neonatal cardiac muscle after 10 days in vitro culture” value is given as 10^−5 M. Moreover, the “Effect on receptor expression, given as % increase compared to control (negative values in brackets)” value in test [2] (setting [3]) is 34%.
On to Astragaloside [reference compound], for which, in test [1], the “Concentration of compound causing a significant increase in number of receptors expressed on neonatal cardiac muscle after 10 days in vitro culture” value is 10^−5 M.
For the molecule Smilagenin, the “Activity at testosterone receptor” value at Testosterone receptor is recorded as “neither compound was found to have any activity”. In addition, the “Activity at glucocorticoid receptor” value on Glucocorticoid receptor is given as “neither compound was found to have any activity”. In addition, on Progesterone receptor, the “Activity at progesterone receptor” value was “neither compound was found to have any activity”. Besides, in the test on estrogen receptor, the Estrogenic activity entry was “do not display estrogenic activity”. Also, the “Concentration of compound causing a significant increase in number of receptors expressed on neonatal cardiac muscle after 10 days in vitro culture” value in test [1] was 10^−6 M. For the same molecule, the “Antagonism by tamoxifen of the increase in muscarinic receptor number” value in test [2] was “not antagonized by tamoxifen”. Besides, the entries for the “Effect on receptor expression, given as % increase compared to control (negative values in brackets)” value in test [2] (setting [3]) and in test [2] (molar concentration of compound 10^−6) were 57% and 18%, respectively.
